Experimental data as given in US20090106858A1, “Isolation and Characterization of the Csb3-1 Mutant of Arabidopsis Thaliana and Use Thereof as a Regulator of Resistance in Plants to Diseases Caused by Biotrophic Pathogens” (priority 2005, published 2009).
“Also recorded” adds a separate entry of the source.

Tests used:
P69C-GUS [1] = settings: wild Arabidopsis plants, local application (Jordá et al., 2000); cited from earlier work
[2] = tested on: Pseudomonas syringae pv. tomato DC3000; experiment: Pst DC3000 bacterial growth in Arabidopsis seedlings sprayed with phosmidomicine before inoculation; type: in vivo, Arabidopsis thaliana
Excerpt: An increase in substrate (MEcPP) accumulation of the CSB3/HDS enzyme or of any of the intermediate metabolic products that precede MEcPP accumulation in the MEP pathway (FIG. 6) could be responsible for the increased resistance of csb3-1 plants. Alternatively, a decrease of product synthesis (HMBPP) of the same enzyme could compromise the synthesis and accumulation of final products (IPP and DMAPP) (FIG. 6) that in turn could compromise the later biosynthesis of the different isoprenoids that must be derived from the MEP pathway. This last possibility can also be responsible for the resistance increase of the csb3-1 plants. In order to study any of these possibilities the impact of an inhibitor in the MEP pathway for increased resistance of csb3-1 plants to Pst DC3000 was studied. To approach the question in this manner phosmidomicine [3-(N-formil-N-hydroxyamino)-propylphosphonic acid] was used as well as a DXR competitive inhibitor, the enzyme that controls the second stage involved in the MEP pathway (FIG. 6) and reduces the levels of the final products obtained by this pathway (that is, IPP and DMAPP) (Schwender, J., Muller, C., Zeidler, J., and Lichtenthaler, H. K. (1999). Cloning and heterologous expression of a cDNA encoding 1-deoxy-D-xylulose-5 phosphate reductoisomerase of Arabidopsis thaliana. FEBS Lett. 455, 140-144; Laule, O., Furholz, A., Chang, H., Zhu, T., Wang, X., Heifetz, P. B., Gruissem, W., and Lange, M. (2003). Crosstalk between cytosolic and plastidial pathways of isoprenoid biosynthesis in Arabidopsis thaliana. Proc. Natl. Acad. Sci. USA 100, 6866-6871). In order to separate this response from the response derived from an arrest of the chloroplast development, phosmidomicine treatments were applied in much smaller dosages and during smaller periods of times than those used experimentally by others (Laule et al., 2003). Wild seedlings and csb3-1 seedlings were sprayed once with a 25 μM or a 50 μM dilution of phosmidomicine 48 hours and 24 hours before inoculation with Pst DC3000 and the subsequent bacterial growth was recorded in inoculated plants at 0.3 and 5 d.p.i. Treated plants were also studied to determine the effect on the normal expression of the P69C-GUS gene. […] Greater dosages of this inhibitor were not tested, since they could have a collateral developmental and/or homeostatic effect in the chloroplast that could lead to undesired side effects.
FIG. 8. […] The plants were exposed to Pst DC3000 and the pathogen's growth was recorded at days 0, 3 and 5 after inoculation (dpi). • (B) The effect of the phosmidomicine treatment (25 μM, treated as described in point (A) on the constitutive expression of P69C-GUS in csb3-1 seedlings (right) as compared with csb3-1 seedlings treated with the buffer solution alone (left). • (C) The effect of the phosmidomicine treatment (25 μM, treated as described in point (A) on the constitutive expression of SA regulated marker genes in csb3-1 seedlings of Arabidopsis as compared with csb3-1 seedlings treated with the buffer solution alone.
Pseudomonas syringae pv. tomato DC3000 was grown and was then prepared to be inoculated as previously described (Mayda et al., 2000). […] A high throughput method for quantifying growth of phytopathogenic bacteria in Arabidopsis thaliana. […]

P69C-GUS [3] = experiment: Histochemical GUS staining of P69C-GUS indicator gene expression; type: in vivo, Arabidopsis thaliana; settings: csb3-1 seedlings, 25 μM
Protocol: (§1) FIG. 8. Pharmacological complementation with phosmidomicine of the resistance increase in csb3-1 plants. • (A) Wild seedlings (wt) and csb3-1 seedlings of Arabidopsis were sprayed once at 48 hours and 24 hours before exposing them to Pst DC3000 with a buffer solution complemented with 25 μM or 50 μM dilution (+phosm) the controls were treated in a similar manner with buffer solution alone. The plants were exposed to Pst DC3000 and the pathogen's growth was recorded at days 0, 3 and 5 after inoculation (dpi). • (B) The effect of the phosmidomicine treatment (25 μM, treated as described in point (A) on the constitutive expression of P69C-GUS in csb3-1 seedlings (right) as compared with csb3-1 seedlings treated with the buffer solution alone (left). • (C) The effect of the phosmidomicine treatment (25 μM, treated as described in point (A) on the constitutive expression of SA regulated marker genes in csb3-1 seedlings of Arabidopsis as compared with csb3-1 seedlings treated with the buffer solution alone.
The mutant line csb3-1 used in these experiments had been subjected to backcrossing at least four times with the original wild line. Plants were made to grow in a growth chamber (19-23° C., fluorescent light at 100 μEm^−2 seg^−1) in a cycle of 10 hours of light to 14 hours of darkness. […]

[4] = tested on: PR-1 and GST6 marker genes; experiment: RT-PCR analysis of SA regulated marker genes PR-1 and GST6; type: in vivo, Arabidopsis thaliana; settings: csb3-1 seedlings, 25 μM
Protocol: as §1
To analyze the level of genic expression by inverse transcriptase mediated PCR, the total RNA samples from leaf tissue were prepared using the Totally RNA kit made by Ambion (Austin, Tex.). Inverse transcription was done using the RT kit for PCR made by Clontech (Palo Alto, Calif.). […]

Compound | expression of P69C-GUS after local application (P69C-GUS [1]) | effect on increased resistance of csb3-1 plants to Pst DC3000 (bacterial growth) ([2]; csb3-1 plants, 5 μM treatments) | complementation of the resistance increase phenotype associated to csb3-1 ([2]; csb3-1 plants, summary statement) | effect on increased resistance of csb3-1 plants to Pst DC3000 (bacterial growth) ([2]; csb3-1 seedlings, one 50 μM treatment) | effect on increased resistance of csb3-1 plants to Pst DC3000 (bacterial growth) ([2]; csb3-1 seedlings, sprayed once with 25 μM 48 h and 24 h before inoculation) | effect on normal resistance of wild plants to Pst DC3000 (bacterial growth) ([2]; wild plants, 50 μM) | effect on constitutive expression of the P69C-GUS transgene (P69C-GUS [3]) | effect on constitutive expression of PR-1 and GST6 marker genes [4]
O=C(O)c1ccccc1O [SA, Salicylic acid] | induces the expression of the P69C-GUS |  |  |  |  |  |  | 
O=CN(O)CCCP(=O)(O)O [phosmidomicine, 3-(N-formil-N-hydroxyamino)-propylphosphonic acid] |  | provoked a reduction in the increased resistance of the csb3-1 plants that was only observed 5 days after inoculation | complement completely the resistance increase phenotype associated to csb3-1 | completely suppressed the resistance increase attributed to the csb3-1 mutation | noticeably reduce resistance increase to Pst DC3000 | made the plants more susceptible to this virulent pathogen; also recorded: resulted in greater rates of bacterial growth | regulation by reduction of the constitutive expression of the P69G-GUS transgene | regulation by reduction of the constitutive expression
